Measurements as given in US8546395B2, “6-cycloamino-3-(1H-pyrrolo[2,3-b]pyridin-4-yl)imidazo[1,2-b]pyridazine derivatives, preparation thereof and therapeutic use thereof” (Sanofi, priority 2008, dated 2013).
Structures can show the parent of a compound that is named as a salt.

How the values were obtained:
[1] = molecular target: T1, casein kinase 1 epsilon (CK1 epsilon) (Homo sapiens, UniProt P49674); test: Filter-plate assay of ATP-33P for CK1 epsilon inhibitors (phosphorylation of casein); assay type: biochemical; conditions: casein substrate, ATP-33P with 10 μM cold ATP, 2 hours at ambient temperature
T1 construct: Invitrogen Corporation (as an alternative)
Description: The capacity of the compounds of the invention to inhibit the phosphorylation of casein by casein kinase 1 epsilon and delta may be evaluated according to the procedure described in US 2005/0131012.
Filter-Plate Assay of ATP-^33P for the Screening of CK1 Epsilon Inhibitors:
The effect of the compounds on inhibition of the phosphorylation of casein by the enzyme casein kinase 1 epsilon (CK1 epsilon) is measured, using a casein assay with filtration of ATP-^33P in vitro.
Casein kinase 1 epsilon (0.58 mg/ml) is obtained via fermentation and purification processes performed according to methods that are well known to those skilled in the art, or may also be obtained from Invitrogen Corporation™ (human CK1 epsilon).
The compounds are tested at five different concentrations so as to generate IC50 values, i.e. the concentration at which a compound is capable of inhibiting the enzymatic activity by 50%, or alternatively the percentage of inhibition at a concentration of 10 micromolar.
“U”-bottomed Falcon plates are prepared by placing 5 μL of solutions of the compounds according to the invention at concentrations of 10, 1, 0.1, 0.01 or 0.001 μM in various wells. The solutions of the compounds according to the invention at these various concentrations are prepared by diluting in a test buffer (50 mM Tris, pH 7.5, […], 2 mM DTT and 1 mM EGTA) a stock solution in DMSO at a concentration of 10 mM. Next, 5 μL of dephosphorylated casein are added to a final concentration of 0.2 μg/μL, 20 μl of CK1 epsilon to a final concentration of 3 ng/μl, and 20 μl of ATP-^33P to a final concentration of 0.02 μCi/μl mixed with cold ATP (10 μM final—approximately 2×10^6 CPM per well). The final total test volume per well is equal to 50 μl.
The “U”-bottomed Falcon® test plate mentioned above is vortexed, and then incubated at ambient temperature for 2 hours. After 2 hours, the reaction is stopped by adding an ice-cold solution of 65 μl of ATP (2 mM) prepared in test buffer.
100 μl of the reaction mixture are then transferred from the “U”-bottomed Falcon® plate into Millipore® MAPH filter plates, preimpregnated with 25 μl of ice-cold 100% TCA. […]
The plates are left to dry overnight at ambient temperature. […] The radiation emitted by each well is then measured for 2 minutes in a Packard® Topcount NXT scintillation counter, in which the values of CPM/well are measured.
The percentage inhibition of the capacity of the enzyme to phosphorylate the substrate (casein) is determined for each concentration of compound tested. These inhibition data expressed as percentages are used to calculate the IC50 value for each compound compared with the controls.
The kinetic studies determined the KM value for ATP as being 21 μM in this test system.

T1 sequence (P49674 whole entry): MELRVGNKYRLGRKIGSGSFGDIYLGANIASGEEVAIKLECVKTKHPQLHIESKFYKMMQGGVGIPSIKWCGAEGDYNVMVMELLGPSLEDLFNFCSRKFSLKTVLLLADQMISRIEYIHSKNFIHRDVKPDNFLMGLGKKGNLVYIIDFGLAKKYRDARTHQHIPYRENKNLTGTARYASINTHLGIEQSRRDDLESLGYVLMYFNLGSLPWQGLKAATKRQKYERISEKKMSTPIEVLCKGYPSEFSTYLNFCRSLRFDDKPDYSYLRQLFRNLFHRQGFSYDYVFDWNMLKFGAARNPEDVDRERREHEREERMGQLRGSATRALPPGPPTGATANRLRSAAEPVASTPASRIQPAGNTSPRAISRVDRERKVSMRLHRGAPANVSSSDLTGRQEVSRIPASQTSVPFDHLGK

SMILES	melting point	IC50 [1]
CC(C)(O)CCN1CCN(c2ccc3nc(-c4ccc(F)cc4)c(-c4ccnc5[nH]ccc45)n3n2)CC1 [Compound 23, 4-{4-[2-(4-Fluorophenyl)-3-(1H-pyrrolo[2,3-b]pyridin-4-yl)imidazo[1,2-b]pyridazin-6-yl]piperazin-1-yl}-2-methylbutan-2-ol]	73 to 75 °C	
Fc1ccc(-c2nc3ccc(N4CCN(Cc5ccccc5)CC4)nn3c2-c2ccnc3[nH]ccc23)cc1 [Compound 27, 6-(4-Benzylpiperazin-1-yl)-2-(4-fluorophenyl)-3-(1H-pyrrolo[2,3-b]pyridin-4-yl)imidazo[1,2-b]pyridazine]	274 to 278 °C	
Cc1cc(N2C[C@H]3CN(CCO)C[C@H]3C2)nn2c(-c3ccnc4[nH]ccc34)c(-c3ccc(F)cc3)nc12 [Compound 31, (cis)-2-{5-[2-(4-Fluorophenyl)-8-methyl-3-(1H-pyrrolo[2,3-b]pyridin-4-yl)imidazo[1,2-b]pyridazin-6-yl]hexahydropyrrolo[3,4-c]pyrrol-2(1H)-yl}ethanol]	271 to 275 °C	
Fc1ccc(-c2nc3ccc(N4CCN[C@@H](c5ccccc5)C4)nn3c2-c2ccnc3[nH]ccc23)cc1 (as salt: HCl) [Compound 25, (S)-2-(4-Fluorophenyl)-6-[3-phenylpiperazin-1-yl]-3-(1H-pyrrolo[2,3-b]pyridin-4-yl)imidazo[1,2-b]pyridazine]	215 °C (dec.)	
C[C@@H]1CN(c2ccc3nc(-c4ccc(F)cc4)c(-c4ccnc5[nH]ccc45)n3n2)C[C@H](C)N1 [Compound 11, 6-[(cis)-3,5-Dimethylpiperazin-1-yl]-2-(4-fluorophenyl)-3-(1H-pyrrolo[2,3-b]pyridin-4-yl)imidazo[1,2-b]pyridazine]	288 to 290 °C	
Cc1cc(N2CCN(CC(C)(C)O)CC2)nn2c(-c3ccnc4[nH]ccc34)c(-c3cccc(F)c3)nc12 [Compound 21, 1-{4-[2-(3-Fluorophenyl)-8-methyl-3-(1H-pyrrolo[2,3-b]pyridin-4-yl)imidazo[1,2-b]pyridazin-6-yl]piperazin-1-yl}-2-methylpropan-2-ol]	> 270 °C	
OCCN1C[C@@H]2CN(c3ccc4nc(-c5ccc(F)cc5)c(-c5ccnc6[nH]ccc56)n4n3)C[C@@H]2C1 [Compound 30, (cis)-2-{5-[2-(4-Fluorophenyl)-3-(1H-pyrrolo[2,3-b]pyridin-4-yl)imidazo[1,2-b]pyridazin-6-yl]hexahydropyrrolo[3,4-c]pyrrol-2(1H)-yl}ethanol]	175 to 180 °C	
CN1C[C@@H]2C[C@H]1CN2c1ccc2nc(-c3ccc(F)cc3)c(-c3ccnc4[nH]ccc34)n2n1 [Compound 34, 2-(4-Fluorophenyl)-6-((1S,4S)-5-methyl-2,5-diazabicyclo[2.2.1]hept-2-yl)-3-(1H-pyrrolo[2,3-b]pyridin-4-yl)imidazo[1,2-b]pyridazine]	148 to 168 °C	
CN1C[C@@H]2CN(c3ccc4nc(-c5ccc(F)cc5)c(-c5ccnc6[nH]ccc56)n4n3)C[C@@H]2C1 [Compound 28, (cis)-2-(4-Fluorophenyl)-6-(5-methylhexahydropyrrolo[3,4-c]pyrrol-2(1H)-yl)-3-(1H-pyrrolo[2,3-b]pyridin-4-yl)imidazo[1,2-b]pyridazine]	238 to 239 °C	
Cc1cc(N2CCN(CCO)CC2)nn2c(-c3ccnc4[nH]ccc34)c(-c3cccc(F)c3)nc12 [Compound 12, 2-{4-[2-(3-Fluorophenyl)-8-methyl-3-(1H-pyrrolo[2,3-b]pyridin-4-yl)imidazo[1,2-b]pyridazin-6-yl]piperazin-1-yl}ethanol]	201 to 203 °C	
CC(C)N1CCN(c2ccc3nc(-c4ccc(F)cc4)c(-c4ccnc5[nH]ccc45)n3n2)CC1 [Compound 14, 2-(4-Fluorophenyl)-6-(4-isopropylpiperazin-1-yl)-3-(1H-pyrrolo[2,3-b]pyridin-4-yl)imidazo[1,2-b]pyridazine]	271 to 273 °C	
Cc1nc2ccc(N3C[C@@H](C)N[C@@H](C)C3)nn2c1-c1ccnc2[nH]ccc12 [Compound 3, 6-[(cis)-3,5-Dimethylpiperazin-1-yl]-2-methyl-3-(1H-pyrrolo[2,3-b]pyridin-4-yl)-imidazo[1,2-b]pyridazine]		303 nM
CC(C)(CO)N1CCN(c2ccc3nc(-c4ccc(F)cc4)c(-c4ccnc5[nH]ccc45)n3n2)CC1 [Compound 19, 2-{4-[2-(4-Fluorophenyl)-3-(1H-pyrrolo[2,3-b]pyridin-4-yl)imidazo[1,2-b]pyridazin-6-yl]piperazin-1-yl}-2-methylpropan-1-ol]	> 250 °C	
Fc1ccc(-c2nc3ccc(N4CCN[C@H](c5ccccc5)C4)nn3c2-c2ccnc3[nH]ccc23)cc1 (as salt: HCl) [Compound 24, (R)-2-(4-Fluorophenyl)-6-[3-phenylpiperazin-1-yl]-3-(1H-pyrrolo[2,3-b]pyridin-4-yl)imidazo[1,2-b]pyridazine]	215 °C (dec.)	

Further lines, results first:

melting point	IC50 [1]	SMILES
> 260 °C		Cc1cc(N2C[C@H]3CCCN(C)[C@H]3C2)nn2c(-c3ccnc4[nH]ccc34)c(-c3ccc(F)cc3)nc12 [Compound 32, 2-(4-Fluorophenyl)-8-methyl-6-((4aR,7aR)-1-methyloctahydro-6H-pyrrolo[3,4-b]pyridin-6-yl)-3-(1H-pyrrolo[2,3-b]pyridin-4-yl)imidazo[1,2-b]pyridazine]
253 to 257 °C		Cc1cc(N2CCNC(c3ccccc3)C2)nn2c(-c3ccnc4[nH]ccc34)c(-c3ccc(F)cc3)nc12 (centres unmarked) [Compound 26, 2-(4-Fluorophenyl)-8-methyl-6-[3-phenylpiperazin-1-yl]-3-(1H-pyrrolo[2,3-b]pyridin-4-yl)imidazo[1,2-b]pyridazine]
> 300 °C		Cc1cc(N2CCNC(C)(C)C2)nn2c(-c3ccnc4[nH]ccc34)c(-c3ccc(F)cc3)nc12 [Compound 10, 6-(3,3-Dimethylpiperazin-1-yl)-2-(4-fluorophenyl)-8-methyl-3-(1H-pyrrolo[2,3-b]pyridin-4-yl)imidazo[1,2-b]pyridazine]
293 to 299 °C		Cc1cc(N2CCNC3(CCCC3)C2)nn2c(-c3ccnc4[nH]ccc34)c(-c3ccc(F)cc3)nc12 [Compound 18, 6-(6,9-Diazaspiro[4.5]dec-9-yl)-2-(4-fluorophenyl)-8-methyl-3-(1H-pyrrolo[2,3-b]pyridin-4-yl)imidazo[1,2-b]pyridazine]
265 to 268 °C		Cc1cc(N2CCN(CC(C)(C)O)CC2)nn2c(-c3ccnc4[nH]ccc34)c(-c3ccc(F)cc3)nc12 [Compound 22, 1-{4-[2-(4-Fluorophenyl)-8-methyl-3-(1H-pyrrolo[2,3-b]pyridin-4-yl)imidazo[1,2-b]pyridazin-6-yl]piperazin-1-yl}-2-methylpropan-2-ol]
270 to 273 °C		Cc1cc(N2CCNC(C)(C)C2)nn2c(-c3ccnc4[nH]ccc34)c(-c3cccc(F)c3)nc12 [Compound 9, 6-(3,3-Dimethylpiperazin-1-yl)-2-(3-fluorophenyl)-8-methyl-3-(1H-pyrrolo[2,3-b]pyridin-4-yl)imidazo[1,2-b]pyridazine]
> 260 °C		Cc1cc(N2C[C@@H]3CCCN(C)[C@@H]3C2)nn2c(-c3ccnc4[nH]ccc34)c(-c3ccc(F)cc3)nc12 [Compound 33, 2-(4-Fluorophenyl)-8-methyl-6-((4aS,7aS)-1-methyloctahydro-6H-pyrrolo[3,4-b]pyridin-6-yl)-3-(1H-pyrrolo[2,3-b]pyridin-4-yl)imidazo[1,2-b]pyridazine]
285 to 291 °C		Cc1cc(N2CCN(C(C)C)CC2)nn2c(-c3ccnc4[nH]ccc34)c(-c3ccc(F)cc3)nc12 [Compound 15, 2-(4-Fluorophenyl)-6-(4-isopropylpiperazin-1-yl)-8-methyl-3-(1H-pyrrolo[2,3-b]pyridin-4-yl)imidazo[1,2-b]pyridazine]
239 to 242 °C		Cc1cc(N2CCN(CCO)CC2)nn2c(-c3ccnc4[nH]ccc34)c(-c3ccc(F)cc3)nc12 [Compound 13, 2-{4-[2-(4-Fluorophenyl)-8-methyl-3-(1H-pyrrolo[2,3-b]pyridin-4-yl)imidazo[1,2-b]pyridazin-6-yl]piperazin-1-yl}ethanol]
